# Test results: patent US6881741B2 (ViroChem Pharma Inc., priority 2001, dated 2005)
# Columns and labels:
# [1] = molecular target: recombinant HCV NS5B (HCV RNA-dependent RNA polymerase) (Hepatitis C virus genotype 1b, UniProt P26663); test: biochemical; conditions: related polymerase activity (Example 27 list); read-out: IC50
# [2] = molecular target: T1, HCV NS3 enzyme (ATPase activity of HCV NS3 helicase) (Hepatitis C virus genotype 1b, UniProt P26663); test: ATPase activity of HCV NS3 helicase, HPLC Assay; assay type: biochemical; conditions: ADP produced measured by paired-ion HPLC, 1 nM enzyme, read-out: Anti-ATPase (HPLC method) EC50
# T1 sequence (P26663 1027-1657 limits assumed): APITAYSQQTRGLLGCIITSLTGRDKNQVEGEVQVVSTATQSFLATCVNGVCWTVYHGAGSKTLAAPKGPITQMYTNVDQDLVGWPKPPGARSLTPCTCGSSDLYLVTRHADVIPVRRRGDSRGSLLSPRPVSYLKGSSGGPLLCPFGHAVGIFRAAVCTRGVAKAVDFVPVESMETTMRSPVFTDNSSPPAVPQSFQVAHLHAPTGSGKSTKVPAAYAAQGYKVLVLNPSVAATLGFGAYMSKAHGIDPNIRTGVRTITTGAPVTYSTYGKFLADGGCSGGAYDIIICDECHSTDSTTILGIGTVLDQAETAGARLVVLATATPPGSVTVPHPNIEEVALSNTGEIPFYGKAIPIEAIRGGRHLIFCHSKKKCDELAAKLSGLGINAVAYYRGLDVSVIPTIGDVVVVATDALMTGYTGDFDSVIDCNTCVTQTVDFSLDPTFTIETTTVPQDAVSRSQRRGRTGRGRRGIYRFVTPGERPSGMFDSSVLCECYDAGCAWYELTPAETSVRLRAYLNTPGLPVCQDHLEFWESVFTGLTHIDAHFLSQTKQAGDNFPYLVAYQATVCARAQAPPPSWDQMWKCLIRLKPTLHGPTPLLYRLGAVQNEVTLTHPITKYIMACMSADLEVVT
# Experimental: (§1) Evaluation of Analogues for measurement of ATPase activity of HCV NS3 helicase
# The measurement of HCV NS3 ATPase activity was performed by measuring the amount of ADP produced during the conversion of ATP to ADP by the HCV NS3 enzyme using paired-ion HPLC on a reverse phase column. […]. The mobile phase was an isocratic solution of 0.15 M triethylamine, 6% methanol, and phosphoric acid to pH 5.5. ADP and ATP peaks were resolved using the Aqua 5μ, C18, 125 Å, (150×4.6 mm) reverse phase column. The extent of ATP conversion to ADP was evaluated by measuring the area under the ADP peak produced which was detected at 259 nm. The amount of ADP was corrected for the presence of ADP contaminant in the original ATP solution. […] The IC50 was determined from dose-response curves using six to eight concentrations per compound. Curves were fitted to data points using a non-linear regression analysis, and IC50s were interpolated from the resulting curves using GraphPad Prism software, version 2.0 (GraphPad Software Inc, San Diego, Calif.).
# [3] = molecular target: T1, HCV NS3 enzyme (ATPase activity of HCV NS3 helicase); test: ATPase activity of HCV NS3 helicase, Malachite Green Assay; assay type: biochemical; conditions: free inorganic phosphate release, 30 min at 37 C, 200 μM ATP, 3 nM enzyme, read-out: Anti-ATPase (Malachite Green assay) EC50
# Experimental: as §1
# The measurement of ATPase activity was performed by measuring the amount of free inorganic phosphate released during the conversion of ATP to ADP by the HCV NS3 ATPase activity. The assay is as follows: In a 96-well microtiter-plate, compounds were dissolved at various concentrations in a final volume of 25 μl of ATPase buffer containing 400 μM ATP. The enzymatic reaction was initiated by the addition of 25 μl of ATPase buffer containing 6 nM of HCV NS3 enzyme without ATP to the wells followed by an incubation of 30 min. at 37 C. Essentially, the final concentration of the ATPase buffer components are as follows: 44 mM MOPS pH 7.0, 8.8 mM NaCl, 2.2 mM MgCl2, 125 μg/ml poly A, 1% DMSO, 200 μM ATP, and 3 nM HCV NS3 enzyme. The reaction was stopped by the addition of 100 μl of Biomol Green™ reagent (BIOMOL® Research Laboratories Inc., Plymouth Meeting, Pa.). In order to allow the development of the green color, the plate was incubated for 15 min. at room temperature. Then the plate was read on a micro-plate reader at 620 nm. […] The signal recorded was also corrected from the background signal obtained with control samples with compound only. The IC50 was determined from dose-response curves using six to eight concentrations per compound. […]
# recombinant HCV NS5B (HCV RNA-dependent RNA polymerase), sequence (P26663 2420-3010 limits assumed): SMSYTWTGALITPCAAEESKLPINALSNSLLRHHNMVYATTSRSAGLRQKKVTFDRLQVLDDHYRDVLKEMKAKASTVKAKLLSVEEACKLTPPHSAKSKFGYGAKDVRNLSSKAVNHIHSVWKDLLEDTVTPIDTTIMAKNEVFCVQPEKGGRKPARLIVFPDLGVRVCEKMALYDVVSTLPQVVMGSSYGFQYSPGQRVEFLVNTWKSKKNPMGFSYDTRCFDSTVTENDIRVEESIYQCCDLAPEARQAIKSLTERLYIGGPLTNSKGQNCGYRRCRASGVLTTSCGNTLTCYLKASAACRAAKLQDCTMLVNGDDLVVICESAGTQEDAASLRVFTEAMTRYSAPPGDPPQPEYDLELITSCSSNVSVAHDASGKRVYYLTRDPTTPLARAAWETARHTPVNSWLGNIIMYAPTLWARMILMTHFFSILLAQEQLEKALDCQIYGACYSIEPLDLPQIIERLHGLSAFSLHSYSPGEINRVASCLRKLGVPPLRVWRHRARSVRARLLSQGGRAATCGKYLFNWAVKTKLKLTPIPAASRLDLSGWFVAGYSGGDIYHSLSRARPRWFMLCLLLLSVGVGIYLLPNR
SMILES,IC50 [1] [µM],EC50 [2] [µM],EC50 [3] [µM]
"CC(C)Cc1ccc(-c2cc(NS(=O)(=O)c3ccc(Br)cc3F)c(C(=O)O)s2)cc1 [Compound #223, 3-(4-Bromo-2-fluorobenzenesulfonyl-amino)-5-(4-isobutylphenyl)-thiophene-2-carboxylic acid]",5 to 20,< 5,
"CC(C)Cc1ccc(-c2cc(NS(=O)(=O)c3ccc(-c4cc(C(F)(F)F)on4)s3)c(C(=O)O)s2)cc1 [Compound #581, 5-(4-Isobutyl-phenyl)-3-[5-(5-trifluoromethyl-isoxazol-3-yl)-thiophene-2-sulfonylamino]-thiophene-2-carboxylic acid]",,5 to 20,
"CC(C)Cc1ccc(-c2cc(NS(=O)(=O)c3ccc(F)c(F)c3F)c(C(=O)O)s2)cc1 [Compound #582, 5-(4-Isobutyl-phenyl)-3-(2,3,4-trifluoro-benzenesulfonylamino)-thiophene-2-carboxylic acid]",,> 20,
"Cc1cc(S(=O)(=O)Nc2cc(-c3ccc(Cl)cc3)sc2C(=O)O)c(C)cc1Cl [Compound #14, 3-(4-Chloro-2,5-dimethyl-benzenesulfonylamino)-5-(4-chloro-phenyl)-thiophene-2-carboxylic acid]",< 5,,> 20
"CC(C)Cc1ccc(-c2cc(NS(=O)(=O)c3ccc(C#N)cc3Cl)c(C(=O)O)s2)cc1 [Compound #228, 3-(2-Chloro-4-cyanobenzenesulfonyl-amino)-5-(4-isobutylphenyl)-thiophene-2-carboxylic acid]",> 20,> 20,
"Cc1cc(Br)ccc1S(=O)(=O)Nc1cc(-c2ccc(CC(C)C)cc2)sc1C(=O)O [Compound #224, 3-(4-Bromo-2-methylbenzenesulfonyl-amino)-5-(4-isobutylphenyl)-thiophene-2-carboxylic acid]",> 20,5 to 20,
COc1cccc(S(=O)(=O)Nc2cc(-c3ccc(CC(C)C)cc3)sc2C(=O)O)c1 [Compound #225],> 20,> 20,
"CC(C)Cc1ccc(-c2cc(NS(=O)(=O)c3cc(OCC(F)(F)F)ccc3OCC(F)(F)F)c(C(=O)O)s2)cc1 [Compound #227, 3-[2,5-Bis-(2,2,2-trifluoroethoxy)-benzenesulfonylamino]-5-(4-isobutyl-phenyl)-thiophene-2-carboxylic acid]",> 20,> 20,
"Cc1cc(S(=O)(=O)Nc2cc(-c3ccc(CC(C)C)cc3)sc2C(=O)O)c(C)cc1Cl [Compound #19, 3-(4-Chloro-2,5-dimethyl-benzenesulfonylamino)-5-(4-isobutyl-phenyl)-thiophene-2-carboxylic acid]",5 to 20,5 to 20,< 5
